Columns and labels:
[1] = test system: HeLa cervical adenocarcinoma; test: Cell Proliferation Inhibition Assay, Hela (ATP Lite); format: cell-based; conditions: Homo sapiens, ATP-Lite method
From the text: (§1) Cell Proliferation Inhibition Assay
(§2) The ability of a test compound to inhibit unregulated cell proliferation may be determined by measuring incorporation of ^14C-labelled thymidine into newly synthesized DNA within cell lines derived from carcinomas originating from several tissues. Accordingly, the effect of a test compound on proliferation of cells with a variety of phenotypes may be determined.
(§3) Carcinoma cell lines used include the HeLa cervical adenocarcinoma from the American Type Culture Collection (ATCC Cat. #CCL2), A375 malignant melanoma (ATCC Cat. #CRL-1619), HCT-116 colon carcinoma (ATCC Cat. #CCL-247), SKBR3 breast carcinoma (ATCC Cat. #HTB-30) and BT474 breast carcinoma (ATCC Cat. #HTB-20).
(§4) The carcinoma cells were trypsinized and counted. The cells (3000-8000 count) were added to each well of a 96-well CytoStar tissue culture treated scintillating microplate (Amersham #RPNQ0160) in complete medium (100 μL) and the plate was then incubated in complete medium for 24 hrs at 37° C. in an inert atmosphere containing 5% CO2.
(§5) Test compound (1 μL) in 100% DMSO was added to the plate test-wells with DMSO only added to control-wells. The plate was incubated in complete medium for a second 24 hr period at 37° C. in an atmosphere containing 5% CO2.
(§6) Cell proliferation of the Hela cell line was measured using the ATP-Lite method as described in the ATP Lite Kit (Perkin-Elmer Kit Number 6106941) or the C^14 method as described above. Cell proliferation of the other cell lines was measured using the C^14 method.

BT474 breast carcinoma = test: Cell Proliferation Inhibition Assay, BT474 (14C-thymidine); format: cell-based; conditions: Homo sapiens, BT-474, C14 method
From the text: as §1, §2, §3, §4, §5
(§7) An aliquot of a solution of Methyl ^14C-thymidine (56 mC/mmol) (NEN #NEC568 or AMersham #CFA532) and complete medium (20 uL to provide 0.2 μCl/well) was then added to each well and the plate was incubated for a third 24 hr period at 37° C. in an atmosphere containing 5% CO2.
(§8) The plate contents were then discarded, the plate washed twice with PBS (200 μL) and then PBS (200 μL) was added to each well. The plate was sealed and the degree of methyl ^14C-thymidine incorporation was quantified on a Packard Top Count.
as §6

[2] = test system: HeLa cervical adenocarcinoma; test: Cell Proliferation Inhibition Assay, Hela (C14 method); format: cell-based; conditions: Homo sapiens, Table 7
From the text: as §1, §2, §3, §4, §5, §7, §8, §6

SKBR3 breast carcinoma = test: Cell Proliferation Inhibition Assay, SKBR3 (14C-thymidine); format: cell-based; conditions: Homo sapiens, SK-BR-3, C14 method
From the text: as §1, §2, §3, §4, §5, §7, §8, §6

HER-4 = molecular target: T1, HER-4 (Homo sapiens, UniProt Q15303); test: HER-4 Kinase Assay; format: biochemical
T1 construct: His6 with thrombin site (N); purchased Proqinase (Freiburg, Germany)
T1 sequence (Q15303 676-1307): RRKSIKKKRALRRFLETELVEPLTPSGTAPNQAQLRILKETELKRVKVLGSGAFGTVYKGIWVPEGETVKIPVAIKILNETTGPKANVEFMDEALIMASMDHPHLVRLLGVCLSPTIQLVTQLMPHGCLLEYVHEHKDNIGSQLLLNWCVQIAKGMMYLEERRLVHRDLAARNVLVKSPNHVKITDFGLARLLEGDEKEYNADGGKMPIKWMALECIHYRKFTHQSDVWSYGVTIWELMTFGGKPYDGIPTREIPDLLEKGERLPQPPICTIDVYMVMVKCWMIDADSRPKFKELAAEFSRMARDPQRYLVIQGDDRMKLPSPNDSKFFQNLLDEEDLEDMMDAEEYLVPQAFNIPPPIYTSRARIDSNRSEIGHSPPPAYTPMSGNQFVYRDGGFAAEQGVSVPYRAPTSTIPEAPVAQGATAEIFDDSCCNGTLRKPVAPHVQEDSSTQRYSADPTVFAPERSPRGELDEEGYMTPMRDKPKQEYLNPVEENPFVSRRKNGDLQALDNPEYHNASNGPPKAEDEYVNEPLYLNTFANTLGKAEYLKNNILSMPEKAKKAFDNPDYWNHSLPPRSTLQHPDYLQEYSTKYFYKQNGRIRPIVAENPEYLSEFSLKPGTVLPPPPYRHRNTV
Method: The HER-4 kinase used was purified at Proqinase (Freiburg, Germany) from a construct that consisted of a fusion of GST (Glutathione-S-Transferase), HIS6-Thrombin and the nucleotides encoding amino acids 676 to 1307 of HER-4 (Accession NM 005235).
A mixture of a 10× kinase reaction buffer (600 mM Hepes at pH 7.5, 30 mM Magnesium Chloride, 0.03 mM Sodium Vanadate and 500 μg/mL PEG 20,000), DTT (1.2 mM final from a 10 mM) stock), ATP (1 μM from a 10 mM stock), biotinylated polyGluTyr (1.5 ng/μL final from stock of 1 μg/μL) prepared by Upstate Biotechnologies, Lake Placid, N.Y.), Manganese Chloride (3 mM final from a 1 M stock), γ-^33P-ATP (10 μCl/mL stock) and water (70 μL/well) was added to each well of a Streptavidin Flashplate (Cat. # SMP103, NEN, Boston, Mass.).
Test compound stock (1 μL) was added to the appropriate wells. Diluted GST HER-4 kinase (6.7 ng/μL diluted into 50 mM Tris-HCl at pH 8.0 and 0.1% bovine serum albumin) (30 μL) was added (total volume of 200 ng/well) to initiate the reactions.
The reaction plates were incubated at 30° C. for 1 hr. The reaction was terminated by aspirating the reaction mixture from the plate wells and washing the wells three times with a 1×PBS stop buffer (300 μL) and 100 mM EDTA. After the final wash, the same stop buffer (200 μL) was again added to the wells. The plates were then sealed and read on the TopCount scintillation counter.
For a series of test concentrations, the IC50 was derived by graphing percent inhibition against the log of the concentrations tested for a given compound.

[3] = test system: Human epidermoid A431 carcinoma; test: In Vivo Models - Inhibition of Tumor Growth, A431; conditions: 100 mg/kg, oral daily for 30 days, athymic mice
Method: In Vivo Models—Inhibition of Tumor Growth
The ability of test compounds to inhibit unregulated growth of human tumor cells in vivo was evaluated by implanting human tumor cells into the hindflank of athymic mice, administering a test compound and then quantifying any change in tumor size.
Human epidermoid A431 carcinoma, N87 cells and BT474 cells were implanted subcutaneously into the hindflank of female athymic mice (Charles River) and allowed to grow for 6-10 days. After a measurable tumor was established (as determined by baseline caliper measurement), the animal was administered an oral dose of the test compound daily for a period of 30 days. Tumor size was measured every five days and the degree of inhibition was determined by comparing drug-treated animals to vehicle-treated animals.
Variations of this method are intended to include intraperitoneal injection or intravenous infusion as the route of administration and administration of the test compound either alone or in a combination therapy.
The inhibition of tumor growth values are shown in Table 8 at various test concentrations, as indicated. For compounds with multiple values at one test concentration, each value represents a separate assay result.

O=C(O)c1sc2ncnc3c2c1NC(=O)N3c1ccc(OCc2ccccn2)c(Cl)c1 [Cpd 38, 5-[3-chloro-4-(pyridin-2-ylmethoxy)-phenyl]-4-oxo-4,5-dihydro-3H-1-thia-3,5,6,8-tetraaza-acenaphthylene-2-carboxylic acid]
IC50 [1]: 100 µM | IC50 (BT474 breast carcinoma): ≥ 100 µM | IC50 [2]: ≥ 100 µM | IC50 (SKBR3 breast carcinoma): 100 µM

O=C(Nc1ccc(CN2CCCCC2)cc1)c1sc2ncnc3c2c1NC(=O)N3c1ccc(Sc2ccccc2)cc1 [Cpd 169, 4-oxo-5-(4-phenylsulfanyl-phenyl)-4,5-dihydro-3H-1-thia-3,5,6,8-tetraaza-acenaphthylene-2-carboxylic acid (4-piperidin-1-ylmethyl-phenyl)-amide]
IC50 [1]: 4.28 µM | IC50 (HER-4): 0.03 µM | IC50 (BT474 breast carcinoma): 0.383 µM | percent inhibition A431 [3]: 55.4% | IC50 (SKBR3 breast carcinoma): 0.144 µM

O=C(Nc1ccc(CN2CCOCC2)cc1)c1sc2ncnc3c2c1NC(=O)N3c1ccc(OCc2ccccn2)c(Cl)c1 [Cpd 52, 5-[3-chloro-4-(pyridin-2-ylmethoxy)-phenyl]-4-oxo-4,5-dihydro-3H-1-thia-3,5,6,8-tetraaza-acenaphthylene-2-carboxylic acid (4-morpholin-4-ylmethyl-phenyl)-amide]
IC50 [1]: 27 µM | IC50 (BT474 breast carcinoma): 5.98 µM | IC50 [2]: ≥ 100 µM | IC50 (SKBR3 breast carcinoma): 2.61 µM

O=C(Nc1ccc(CN2CCOCC2)cc1)c1sc2ncnc3c2c1NC(=O)N3c1ccc(Sc2ccccc2)cc1 [Cpd 178, 4-oxo-5-(4-phenylsulfanyl-phenyl)-4,5-dihydro-3H-1-thia-3,5,6,8-tetraaza-acenaphthylene-2-carboxylic acid (4-morpholin-4-ylmethyl-phenyl)-amide]
IC50 [1]: 53.4 µM | IC50 (HER-4): 0.126 µM | IC50 (BT474 breast carcinoma): 0.158 µM | IC50 (SKBR3 breast carcinoma): 0.292 µM

O=C(Nc1ccc(NCCCN2CCOCC2)nc1)c1sc2ncnc3c2c1NC(=O)N3c1cccc(Br)c1 [Cpd 64, 5-(3-bromo-phenyl)-4-oxo-4,5-dihydro-3H-1-thia-3,5,6,8-tetraaza-acenaphthylene-2-carboxylic acid [6-(3-morpholin-4-yl-propylamino)-pyridin-3-yl]-amide]
IC50 [1]: 10 µM | IC50 (BT474 breast carcinoma): ≥ 10 µM | IC50 (SKBR3 breast carcinoma): 100 µM

O=C(Nc1ccc(CN2CCOCC2)cc1)c1sc2ncnc3c2c1NC(=O)N3c1cccc(Br)c1 [Cpd 36, 5-(3-bromo-phenyl)-4-oxo-4,5-dihydro-3H-1-thia-3,5,6,8-tetraaza-acenaphthylene-2-carboxylic acid (4-morpholin-4-ylmethyl-phenyl)-amide]
IC50 [1]: 100 µM | IC50 (BT474 breast carcinoma): ≥ 100 µM | IC50 [2]: ≥ 10 µM | IC50 (SKBR3 breast carcinoma): 100 µM

COc1ccc(NC(=O)c2sc3ncnc4c3c2NC(=O)N4c2ccc(OCc3ccccn3)c(Cl)c2)cc1OC [Cpd 48, 5-[3-chloro-4-(pyridin-2-ylmethoxy)-phenyl]-4-oxo-4,5-dihydro-3H-1-thia-3,5,6,8-tetraaza-acenaphthylene-2-carboxylic acid (3,4-dimethoxy-phenyl)-amide]
IC50 [1]: 100 µM | IC50 (BT474 breast carcinoma): ≥ 10 µM | IC50 [2]: ≥ 10 µM | IC50 (SKBR3 breast carcinoma): 100 µM

From patent US7579356B2, “Thia-tetraazaacenaphthylene kinase inhibitors” (Janssen Pharmaceutica NV, priority 2005, dated 2009)
